Test results taken from patent US9499538B2, “Estrogen receptor modulators and uses thereof” (Seragon Pharmaceuticals, Inc., priority 2012, dated 2016).

Key:
ER-α in MCF-7 cells = target: T1, ER-α in MCF-7 cells (Homo sapiens, UniProt P03372); experiment: Breast Cancer Cell ER-α In Cell Western Assay (SP1); type: cell-based; details: 4 or 24 hr post compound addition; for Emax: MCF7, SP1 antibody, read-out: ER-α In Cell Western Assay (SP1) Max Response; for DC50: SP1 antibody, read-out: ER-α In Cell Western Assay (SP1) IC50
T1 construct: endogenous in cells; host or cells: MCF-7
T1 sequence (P03372 1-595): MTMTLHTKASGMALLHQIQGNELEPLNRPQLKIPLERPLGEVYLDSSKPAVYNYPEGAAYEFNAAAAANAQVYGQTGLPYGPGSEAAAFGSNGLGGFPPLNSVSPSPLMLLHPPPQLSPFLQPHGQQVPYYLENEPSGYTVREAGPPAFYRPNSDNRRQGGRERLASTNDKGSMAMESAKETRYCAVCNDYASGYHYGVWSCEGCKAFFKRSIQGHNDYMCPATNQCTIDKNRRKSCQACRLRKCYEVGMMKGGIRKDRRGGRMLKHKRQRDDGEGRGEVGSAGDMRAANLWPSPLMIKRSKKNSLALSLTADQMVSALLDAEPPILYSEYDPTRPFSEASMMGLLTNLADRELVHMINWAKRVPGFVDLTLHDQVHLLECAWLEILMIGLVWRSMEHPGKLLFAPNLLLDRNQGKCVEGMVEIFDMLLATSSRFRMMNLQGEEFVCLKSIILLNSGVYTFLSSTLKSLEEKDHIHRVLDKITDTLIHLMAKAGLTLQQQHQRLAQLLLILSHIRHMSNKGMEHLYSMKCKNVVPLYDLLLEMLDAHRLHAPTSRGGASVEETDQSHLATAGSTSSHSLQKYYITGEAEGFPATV
How it was run: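 MCF-7 cells in charcoal-stripped FBS medium, treated with 11-point semilog dilutions (0.3–0.000003 μM final) for 4 or 24 h. Fixed cells immunostained with SP1 antibody (800 nm) and DRAQ5 DNA (700 nm); ER/DNA ratio expressed as % of untreated cells.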

MCF-7 cells = experiment: Breast Cancer Cell Viability Assays (MCF-7, CellTiter-Glo); type: cell-based; details: 5 days' compound exposure; for IC50: Homo sapiens, MCF7, 120 h
How it was run: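 MCF-7 cells (320/well, RPMI with 10% FBS) exposed for 5 days to an eleven-point semilog series, 0.3–0.000003 μM final. Viability read by CellTiter-Glo luminescence, expressed as background-corrected percent of untreated cells.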

| Emax (ER-α in MCF-7 cells) | DC50 (ER-α in MCF-7 cells) | IC50 (MCF-7 cells) | Compound | MCF7 Viability Assay Max Response (MCF-7 cells) |
| --- | --- | --- | --- | --- |
| ≥ 40% | ≤ 100 nM | ≤ 100 nM | O=C(O)/C=C/c1ccc(/C(=C(\c2ncc(F)cc2Cl)C2CCC2)c2ccc3[nH]nc(F)c3c2)cc1F [Example 253, (E)-3-(4-((Z)-2-(3-Chloro-5-fluoropyridin-2-yl)-2-cyclobutyl-1-(3-fluoro-1H-indazol-5-yl)vinyl)-2-fluorophenyl)acrylic acid] | ++ (++ = a single % value ≧ 40%) |
| ≥ 40% | ≤ 100 nM | ≤ 100 nM | O=C(O)/C=C/c1ccc(/C(=C(\c2ncc(Cl)cc2Cl)C2CCC2)c2ccc3[nH]nc(F)c3c2)cc1F [Example 254, (E)-3-(4-((Z)-2-Cyclobutyl-2-(3,5-dichloropyridin-2-yl)-1-(3-fluoro-1H-indazol-5-yl)vinyl)-2-fluorophenyl)acrylic acid] | ++ (++ = a single % value ≧ 40%) |
| ≥ 40% | ≤ 100 nM | ≤ 100 nM | CCOC(=O)/C=C/c1ccc(/C(=C(\c2ncc(Cl)cc2Cl)C2CCC2)c2ccc3[nH]nc(F)c3c2)cc1F [Example 255, (E)-Ethyl 3-(4-((Z)-2-cyclobutyl-2-(3,5-dichloropyridin-2-yl)-1-(3-fluoro-1H-indazol-5-yl)vinyl)-2-fluorophenyl)acrylate] | + (+ = a single % value < 40%) |
| ≥ 40% | ≤ 100 nM | ≤ 100 nM | COc1ccc(/C(=C(\c2ccc(/C=C/C(=O)O)c(F)c2)c2ccc3[nH]nc(F)c3c2)C2CCC2)c(Cl)c1 [Example 256, (E)-3-(4-((Z)-2-(2-Chloro-4-methoxyphenyl)-2-cyclobutyl-1-(3-fluoro-1H-indazol-5-yl)vinyl)-2-fluorophenyl)acrylic acid] | ++ (++ = a single % value ≧ 40%) |
| ≥ 40% | ≤ 100 nM | ≤ 100 nM | O=C(O)/C=C/c1ccc(/C(=C(\c2ncc(Cl)cc2C(F)(F)F)C2CCC2)c2ccc3[nH]nc(F)c3c2)cc1 [Example 257, (E)-3-(4-((E)-2-(5-Chloro-3-(trifluoromethyl)pyridin-2-yl)-2-cyclobutyl-1-(3-fluoro-1H-indazol-5-yl)vinyl)phenyl)acrylic acid] | ++ (++ = a single % value ≧ 40%) |
| ≥ 40% | ≤ 100 nM | ≤ 100 nM | O=C(O)/C=C/c1ccc(/C(=C(\c2cnc(C(F)(F)F)cc2C(F)(F)F)C2CCC2)c2ccc3[nH]nc(F)c3c2)cc1 [Example 258, (E)-3-(4-((E)-2-(4,6-bis(Trifluoromethyl)pyridin-3-yl)-2-cyclobutyl-1-(3-fluoro-1H-indazol-5-yl)vinyl)phenyl)acrylic acid] | ++ (++ = a single % value ≧ 40%) |
| ≥ 40% | ≤ 100 nM | ≤ 100 nM | O=C(O)/C=C/c1ccc(/C(=C(\c2ncccc2Cl)C2CCC2)c2ccc3[nH]nc(F)c3c2)cn1 [Example 259, (E)-3-(5-((Z)-2-(3-Chloropyridin-2-yl)-2-cyclobutyl-1-(3-fluoro-1H-indazol-5-yl)vinyl)pyridin-2-yl)acrylic acid] | ++ (++ = a single % value ≧ 40%) |
| ≥ 40% | ≤ 100 nM | ≤ 100 nM | O=C(O)/C=C/c1ccc(/C(=C(\c2ncccc2C(F)(F)F)C2CCC2)c2ccc3[nH]nc(F)c3c2)cn1 [Example 260, (E)-3-(5-((Z)-2-Cyclobutyl-1-(3-fluoro-1H-indazol-5-yl)-2-(3-(trifluoromethyl)pyridin-2-yl)vinyl)pyridin-2-yl)acrylic acid] | ++ (++ = a single % value ≧ 40%) |
| ≥ 40% | ≤ 100 nM | ≤ 100 nM | CC/C(=C(/c1ccc(/C=C/C(=O)O)cc1)c1ccc2[nH]nc(F)c2c1)c1ccccc1Cl [Example 261, (E)-3-(4-((E)-2-(2-Chlorophenyl)-1-(3-fluoro-1H-indazol-5-yl)but-1-en-1-yl)phenyl)acrylic acid] | ++ (++ = a single % value ≧ 40%) |
| ≥ 40% | ≤ 100 nM | ≤ 100 nM | CC/C(=C(/c1ccc(/C=C/C(=O)O)cc1)c1ccc2[nH]nc(F)c2c1)c1ncccc1Cl [Example 262, (E)-3-(4-((E)-2-(3-Chloropyridin-2-yl)-1-(3-fluoro-1H-indazol-5-yl)but-1-en-1-yl)phenyl)acrylic acid] | ++ (++ = a single % value ≧ 40%) |
| ≥ 40% | ≤ 100 nM | ≤ 100 nM | CC/C(=C(/c1ccc(/C=C/C(=O)O)cc1)c1ccc2[nH]nc(F)c2c1)c1ncccc1C(F)(F)F [Example 263, (E)-3-(4-((E)-1-(3-Fluoro-1H-indazol-5-yl)-2-(3-(trifluoromethyl)pyridin-2-yl)but-1-en-1-yl)phenyl)acrylic acid] | ++ (++ = a single % value ≧ 40%) |
| ≥ 40% | ≤ 100 nM | ≤ 100 nM | CC/C(=C(/c1ccc(/C=C/C(=O)O)cc1)c1ccc2[nH]nc(F)c2c1)c1ncc(Cl)cc1Cl [Example 264, (E)-3-(4-((E)-2-(3,5-Dichloropyridin-2-yl)-1-(3-fluoro-1H-indazol-5-yl)but-1-en-1-yl)phenyl)acrylic acid] | ++ (++ = a single % value ≧ 40%) |
| ≥ 40% | ≤ 100 nM | ≤ 100 nM | O=C(O)/C=C/c1ccc(/C(=C(\c2ccccc2)C2CCC2)c2ccc3[nH]nc(F)c3c2)cc1F [Example 265, (E)-3-(4-((Z)-2-Cyclobutyl-1-(3-fluoro-1H-indazol-5-yl)-2-phenylvinyl)-2-fluorophenyl)acrylic acid] | ++ (++ = a single % value ≧ 40%) |
| ≥ 40% | ≤ 100 nM | ≤ 100 nM | C/C(=C\C(=O)O)c1ccc(/C(=C(\c2ccccc2)C2CCC2)c2ccc3[nH]nc(F)c3c2)cc1 [Example 266, (E)-3-(4-((E)-2-Cyclobutyl-1-(3-fluoro-1H-indazol-5-yl)-2-phenylvinyl)phenyl)but-2-enoic acid] | ++ (++ = a single % value ≧ 40%) |
| ≥ 40% | ≤ 100 nM | ≤ 100 nM | C/C(=C\c1ccc(/C(=C(\c2ccccc2)C2CCC2)c2ccc3[nH]nc(F)c3c2)cc1)C(=O)O [Example 267, (E)-3-(4-((E)-2-Cyclobutyl-1-(3-fluoro-1H-indazol-5-yl)-2-phenylvinyl)phenyl)-2-methylacrylic acid] | ++ (++ = a single % value ≧ 40%) |
| ≥ 40% | ≤ 100 nM | ≤ 100 nM | O=C(O)/C=C/c1ccc(/C(=C(\c2ccc(Cl)cc2Cl)C2CCC2)c2ccc3[nH]nc(F)c3c2)cn1 [Example 268, (E)-3-(5-((Z)-2-Cyclobutyl-2-(2,4-dichlorophenyl)-1-(3-fluoro-1H-indazol-5-yl)vinyl)pyridin-2-yl)acrylic acid] | ++ (++ = a single % value ≧ 40%) |
| ≥ 40% | ≤ 100 nM | ≤ 100 nM | O=C(O)/C=C/c1ccc(/C(=C(\c2ccc(F)cc2C(F)(F)F)C2CCC2)c2ccc3[nH]nc(F)c3c2)cn1 [Example 269, (E)-3-(5-((Z)-2-Cyclobutyl-1-(3-fluoro-1H-indazol-5-yl)-2-(4-fluoro-2-(trifluoromethyl)phenyl)vinyl)pyridin-2-yl)acrylic acid] | ++ (++ = a single % value ≧ 40%) |
| ≥ 40% | ≤ 100 nM | ≤ 100 nM | COc1ccc(/C(=C(\c2ccc(/C=C/C(=O)O)nc2)c2ccc3[nH]nc(F)c3c2)C2CCC2)c(Cl)c1 [Example 270, (E)-3-(5-((Z)-2-(2-Chloro-4-methoxyphenyl)-2-cyclobutyl-1-(3-fluoro-1H-indazol-5-yl)vinyl)pyridin-2-yl)acrylic acid] | ++ (++ = a single % value ≧ 40%) |
| ≥ 40% | ≤ 100 nM | ≤ 100 nM | O=C(O)/C=C/c1ccc(/C(=C(\c2ccc(F)cc2Cl)C2CCC2)c2ccc3[nH]nc(F)c3c2)cc1F [Example 271, (E)-3-(4-((Z)-2-(2-Chloro-4-fluorophenyl)-2-cyclobutyl-1-(3-fluoro-1H-indazol-5-yl)vinyl)-2-fluorophenyl)acrylic acid] | ++ (++ = a single % value ≧ 40%) |
| ≥ 40% | ≤ 100 nM | ≤ 100 nM | O=C(O)/C=C/c1ccc(/C(=C(\c2ccc(OC(F)(F)F)cc2Cl)C2CCC2)c2ccc3[nH]nc(F)c3c2)cn1 [Example 272, (E)-3-(5-((Z)-2-(2-Chloro-4-(trifluoromethoxy)phenyl)-2-cyclobutyl-1-(3-fluoro-1H-indazol-5-yl)vinyl)pyridin-2-yl)acrylic acid] | ++ (++ = a single % value ≧ 40%) |
